From PubChem BioAssay AID2060886 (Molecular Pharmacology Branch, DTP, NCI, 2025)
“And” between values parts separate entries of the source, which are not always exact repeats. Equal entries are not always repeated.

System: 653999-131-R-J2-PDC complex spheroids, growth inhibition
Experiment: Anticancer human tumor 653999-131-R-J2-PDC patient-derived lung adenocarcinoma cell line growth inhibition [RAS]
Conditions: for viability, T/C: stronger effect = lower value; active = viability on the fitted dose curve at most 10% of control; inactive = the rest
In short: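 Multi-cell-type spheroids: tumor cells plus HUVEC endothelial cells and mesenchymal stem cells. RAS-pathway inhibitors were combined with targeted agents, each dosed in half-log steps down from clinical Cmax, or from 10 microM when Cmax was unknown.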

[1] = curve of first compound, second compound 0.0316 µM
[2] = curve of first compound, second compound 0.1 µM
[3] = curve of first compound, second compound 0.316 µM
[4] = curve of first compound, second compound 1 µM
[5] = curve of first compound, second compound 3.16 µM
[6] = curve of first compound, second compound 10 µM
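Note: spheroids exposed to the agents for seven days before the readout.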

CC(=O)OC12COC1CC(O)C1(C)C(=O)C(O)C3=C(C)C(OC(=O)C(O)C(NC(=O)OC(C)(C)C)c4ccccc4)CC(O)(C(OC(=O)c4ccccc4)C21)C3(C)C (stereo unspecified) + C#Cc1c(F)ccc2cc(O)cc(-c3ncc4c(N5CC6CCC(C5)N6)nc(OCC56CCCN5CC(F)C6)nc4c3F)c12
31.6 nM: IC50 [1]
< 31.6 nM: IC50 [2] | IC50 [3] | IC50 [4] | IC50 [5] | IC50 [6]
inactive: viability, T/C (second compound 0.0316 µM, first compound 0.0316 µM) 51% | viability, T/C (second compound 0.0316 µM, first compound 0.1 µM) 58% | viability, T/C (second compound 0.0316 µM, first compound 0.316 µM) 47.7% | viability, T/C (second compound 0.0316 µM, first compound 1 µM) 65.3% | viability, T/C (second compound 0.0316 µM, first compound 3.16 µM) 71.5% | viability, T/C (second compound 0.0316 µM, first compound 10 µM) 59.4% | viability, T/C (second compound 0.1 µM, first compound 0.0316 µM) 50% | viability, T/C (second compound 0.1 µM, first compound 0.1 µM) 47% | viability, T/C (second compound 0.1 µM, first compound 0.316 µM) 50.4% | viability, T/C (second compound 0.1 µM, first compound 1 µM) 55.7% | viability, T/C (second compound 0.1 µM, first compound 3.16 µM) 57% | viability, T/C (second compound 0.1 µM, first compound 10 µM) 55.5% | viability, T/C (second compound 0.316 µM, first compound 0.0316 µM) 43.4% | viability, T/C (second compound 0.316 µM, first compound 0.1 µM) 41.3% | viability, T/C (second compound 0.316 µM, first compound 0.316 µM) 42.5% | viability, T/C (second compound 0.316 µM, first compound 1 µM) 50.1% | viability, T/C (second compound 0.316 µM, first compound 3.16 µM) 47.4% | viability, T/C (second compound 0.316 µM, first compound 10 µM) 42.6% | viability, T/C (second compound 1 µM, first compound 0.0316 µM) 25.7% | viability, T/C (second compound 1 µM, first compound 0.1 µM) 31.1% | viability, T/C (second compound 1 µM, first compound 0.316 µM) 32.2% | viability, T/C (second compound 1 µM, first compound 1 µM) 31.9% | viability, T/C (second compound 1 µM, first compound 3.16 µM) 28.8% | viability, T/C (second compound 1 µM, first compound 10 µM) 31% | viability, T/C (second compound 3.16 µM, first compound 0.0316 µM) 19.6% | viability, T/C (second compound 3.16 µM, first compound 0.1 µM) 19.2% | viability, T/C (second compound 3.16 µM, first compound 0.316 µM) 15.8% | viability, T/C (second compound 3.16 µM, first compound 1 µM) 16.2% | viability, T/C (second compound 3.16 µM, first compound 3.16 µM) 24.1% | viability, T/C (second compound 3.16 µM, first compound 10 µM) 18.5% | viability, T/C (second compound 10 µM, first compound 0.0316 µM) 12.6% | viability, T/C (second compound 10 µM, first compound 0.1 µM) 11.7% | viability, T/C (second compound 10 µM, first compound 0.316 µM) 12.4% | viability, T/C (second compound 10 µM, first compound 1 µM) 13.5% | viability, T/C (second compound 10 µM, first compound 3.16 µM) 17.4% | viability, T/C (second compound 10 µM, first compound 10 µM) 13.3%

CCc1c2c(nc3ccc(O)cc13)-c1cc3c(c(=O)n1C2)COC(=O)[C@]3(O)CC + C#Cc1c(F)ccc2cc(O)cc(-c3ncc4c(N5CC6CCC(C5)N6)nc(OCC56CCCN5CC(F)C6)nc4c3F)c12
7.6 nM: IC50 [1]
active: viability, T/C (second compound 3.16 µM, first compound 0.0949 µM) 9.96% | viability, T/C (second compound 3.16 µM, first compound 0.3 µM) 7.39% | viability, T/C (second compound 10 µM, first compound 0.03 µM) 9.45% | viability, T/C (second compound 10 µM, first compound 0.0949 µM) 7.29% | viability, T/C (second compound 10 µM, first compound 0.3 µM) 4.35%
1.67 nM: IC50 [3]
inactive: viability, T/C (second compound 0.0316 µM, first compound 0.000949 µM) 85.8% | viability, T/C (second compound 0.0316 µM, first compound 0.003 µM) 68.4% | viability, T/C (second compound 0.0316 µM, first compound 0.00949 µM) 43.6% | viability, T/C (second compound 0.0316 µM, first compound 0.03 µM) 30.7% | viability, T/C (second compound 0.0316 µM, first compound 0.0949 µM) 24.1% | viability, T/C (second compound 0.0316 µM, first compound 0.3 µM) 14.2% | viability, T/C (second compound 0.1 µM, first compound 0.000949 µM) 83.9% | viability, T/C (second compound 0.1 µM, first compound 0.003 µM) 58.7% | viability, T/C (second compound 0.1 µM, first compound 0.00949 µM) 48.4% | viability, T/C (second compound 0.1 µM, first compound 0.03 µM) 35.2% | viability, T/C (second compound 0.1 µM, first compound 0.0949 µM) 22.9% | viability, T/C (second compound 0.1 µM, first compound 0.3 µM) 12.2% | viability, T/C (second compound 0.316 µM, first compound 0.000949 µM) 57.5% | viability, T/C (second compound 0.316 µM, first compound 0.003 µM) 41.4% | viability, T/C (second compound 0.316 µM, first compound 0.00949 µM) 32.2% | viability, T/C (second compound 0.316 µM, first compound 0.03 µM) 23.5% | viability, T/C (second compound 0.316 µM, first compound 0.0949 µM) 17.5% | viability, T/C (second compound 0.316 µM, first compound 0.3 µM) 13.3% | viability, T/C (second compound 1 µM, first compound 0.000949 µM) 40.3% | viability, T/C (second compound 1 µM, first compound 0.003 µM) 26.4% | viability, T/C (second compound 1 µM, first compound 0.00949 µM) 21.4% | viability, T/C (second compound 1 µM, first compound 0.03 µM) 20.2% | viability, T/C (second compound 1 µM, first compound 0.0949 µM) 15.1% | viability, T/C (second compound 1 µM, first compound 0.3 µM) 20.8% | viability, T/C (second compound 3.16 µM, first compound 0.000949 µM) 39.2% | viability, T/C (second compound 3.16 µM, first compound 0.003 µM) 21.2% | viability, T/C (second compound 3.16 µM, first compound 0.00949 µM) 16.6% | viability, T/C (second compound 3.16 µM, first compound 0.03 µM) 11.6% | viability, T/C (second compound 10 µM, first compound 0.000949 µM) 26.8% | viability, T/C (second compound 10 µM, first compound 0.003 µM) 17.8% | viability, T/C (second compound 10 µM, first compound 0.00949 µM) 12.5%
< 0.949 nM: IC50 [4] | IC50 [5] | IC50 [6]
7.98 nM: IC50 [2]

CC(C)n1nc(-c2ccc3oc(N)nc3c2)c2c(N)ncnc21
inactive: viability, T/C (compound 0.000316 µM) 87.2% and 81.4% and 79.2% | viability, T/C (compound 0.001 µM) 89.2% and 93.6% and 71.3% | viability, T/C (compound 0.00316 µM) 87.7% and 76.8% and 77.8% | viability, T/C (compound 0.01 µM) 61.8% and 63.5% and 57.9% | viability, T/C (compound 0.0316 µM) 43.1% and 40.6% and 35.8% | viability, T/C (compound 0.1 µM) 34.1% and 25.4% and 27.2%
19.5 nM and 19.4 nM and 15.4 nM: IC50 (curve of compound)
